According to publication PMC4111509 (PLoS ONE, 2014):

Key:
Assay in all cases: HPLC-UV product detection
Format in all cases: biochemical
Settings in all cases: AdoMet co-substrate
[1] = molecular target: T1, NpN4OMT5 (Narcissus aff. pseudonarcissus MK-2014, UniProt A0A077ESS0)
T1 construct: gene N4OMT5; full length, N-terminal His tag (pET28a), E. coli, purified

[2] = molecular target: T2, NpN4OMT4 (Narcissus aff. pseudonarcissus MK-2014, UniProt A0A077ES70)
T2 construct: gene N4OMT4; full length, N-terminal His tag (pET28a), E. coli, purified

[3] = molecular target: T3, NpN4OMT2 (Narcissus aff. pseudonarcissus MK-2014, UniProt A0A077EW86)
T3 construct: gene N4OMT2; full length, N-terminal His tag (pET28a), E. coli, purified
T3 sequence (A0A077EW86 whole entry): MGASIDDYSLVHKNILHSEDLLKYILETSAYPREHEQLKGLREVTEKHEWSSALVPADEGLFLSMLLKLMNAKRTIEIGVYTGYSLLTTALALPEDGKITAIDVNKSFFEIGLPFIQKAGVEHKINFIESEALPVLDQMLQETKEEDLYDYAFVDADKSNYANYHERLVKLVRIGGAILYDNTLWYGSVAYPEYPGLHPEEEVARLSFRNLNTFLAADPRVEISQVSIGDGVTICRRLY

T1 sequence (A0A077ESS0 whole entry): as the sequence (A0A077EW86 whole entry) above, with S9C, V11I, N14K counted along it
T2 sequence (A0A077ES70 whole entry): as the sequence (A0A077EW86 whole entry) above, with S9C, V11I, N14K, L67I counted along it

SMILES: Oc1ccc(CCNCc2ccc(O)c(O)c2)cc1 [norbelladine]
- HPLC-UV product detection [1]: enzymatic activity was confirmed for all variants using norbelladine as the substrate
- HPLC-UV product detection [2]: enzymatic activity was confirmed for all variants using norbelladine as the substrate
- HPLC-UV product detection [3]: enzymatic activity was confirmed for all variants using norbelladine as the substrate
